Experimental data taken from patent US20060234919A1, “Use” (priority 2001, published 2006).
Like-named read-outs stand apart in the source and are kept apart here.

Tests used:
lipase = assay: caerulein-induced pancreatitis, lipase activity in pancreatic tissue; type: in vivo, rat; conditions: 1 mg/ml s.c.; caerulein alone 4.87±0.72, control 0.24±0.26
Experimental: Caerulein-induced pancreatitis: Female Sprague-Dawley rats (200-250 g) were anaesthetized with pentobarbitone sodium and phenobarbitone sodium (each 40 mg/kg, i.p.). The cholecystokinin analogue caerulein (8 nmol/kg in 2 h) was infused via one jugular vein for exocrine hyperstimulation and induction of acute edematous pancreatitis (Lampel M, Kern H F. Acute interstitial pancreatitis in the rat in-duced by excessive doses of a pancreatic secretagogue. Virchows Arch (Pathol Anat) 1997; 373: 97-117), while control animals were infused with a corresponding volume (4 ml/kg/h) of phosphate-buffered saline. Pre-treatment with the kininase II inhibitor captopril ([…], i. p.) was given 30 min prior to the infusion of caerulein. At the end of the experiment, the animals were sacrificed with an overdose of pentobarbital sodium. The pancreatic tissue was dried for 16 h in a vacuum centrifuge and the edema was quantified as fluid wt. per dry wt. of the tissue. For the determination of lipase activity in serum, the blood was collected following decapitation in separate groups of rats. The pancreas of these animals was excised an placed immediately into 2 ml of a 154 mmol/l solution of NaCl. After centrifugation at 2×10^5 m/s^2 for 25 min the supernatant was stored at −80° C. All samples were assayed for lipase activity (lipase test Boehringer Mannheim, Germany).

allergic rhinitis = assay: allergic rhinitis, sneezing and nasal rubbing after antigen challenge in sensitised rats; type: in vivo, rat; conditions: % as compared to untreated; topical 10 μl/each nostril 1 h before antigen challenge; counted 30 min
Experimental: Six-week-old male Wistar rats were housed in an air-conditioned room maintained at about 25° C. with humidity of about 50%. Rats were given a standard laboratory rodent chow and water ad libitum.
Rats were generally sensitised by injection of 0.6 ml physiological saline containing egg albumin (1 mg), alum (2 mg) and […] killed Bordetella pertussis into the four footpads on the first day. Five days later they were boosted by subcutaneous injection of 1 ml of physiological saline containing egg albumin (0.5 mg) in 10 sites on the back. Then, local sensitisation was performed every day for about one week from day 14 by dripping the egg albumin dissolved in physiological saline (1 mg/ml, 10 μl) into the bilateral nasal cavities using a micropipette.
After dripping 10 μl of egg albumin dissolved in physiological saline solution (1 mg/ml) into the bilateral nasal cavities, the numbers of nasal rubbing and sneezing were counted for 30 min and was set to 100%.
In this study, the rats were used following intranasal sensitisation (from day 21 to day 23 after the first sensitisation). On the last day, drugs (saline or oxytocin) were given topically (10 μl/each nostril) 1 h before topical antigen challenge. […] Also saline caused a minor decrease.

[1] = tested on: hydrochloric acid-induced cystitis; assay: urinary frequency in rats with hydrochloric acid-induced cystitis; type: in vivo, rat
From the text: Twenty Sprague-Dawley rats (body weight 220-250 g) were randomly divided into four equal groups: group 1, normal controls; group 2, a sham treatment (HCl-induced IC, with subsequent saline instillation); group 3, a sham treatment (HCl-induced IC, with subsequent acetic acid instillation); and group 4, stimulated (HCl-induced IC with oxytocin and acetic acid instillation). The IC animal model developed by Rivas et al. was used (Rivas D A, Chancellor M B, Shupp-Byme D, Shenot P J, McHugh K, McCue P. A molecular marker for the development of interstitial cystitis in a rat model: isoactin gene expression. J. Urol. 1997; 157: 1937-1940); IC was induced in groups 2-4 under general anaesthesia (using a combined subcutaneous injection with acepromazine 0.05 mg/kg, ketamine 50 mg/kg and xylazine 5 mg/kg). A sterile polyethylene catheter (outside diameter 1.27 mm; Becton Dickinson Company, Sparks, Md., USA) was inserted into the bladder through the urethra and all urine aspirated. […]
The micturition pattern was measured both before and 3 weeks after intravesical HCl instillation, using a Grass 79 Polygraph (Grass Instruments Co., Quincy, Mass., USA). Rats were placed into a metabolic cage and micturition recorded automatically for […] (17.00-09.00 hours); all rats were assessed at the same time of the day to minimise the effect of the circadian cycle on micturition frequency and volume. […]

[2] = tested on: ischaemic musculocutaneous skin flaps; conditions: previously shown by the inventors, cited from earlier work

Substance: Oxytocin
- active lipase in the pancreatic tissue (lipase): 1.34±0.29 U/mg
- Nasal rubbing (allergic rhinitis): 42%
- Sneezing (allergic rhinitis): 52%
- micturition frequency ([1]; group 4 (HCl-induced IC with oxytocin 1 mg/ml instillation) vs group 2+3, after 3 weeks, P=0.05): significantly less
- urine volume per micturition ([1]; group 4 (oxytocin instillation) vs group 2+3): not significantly higher
- survival of ischaemic musculocutaneous skin flaps ([2]; 1 μg/kg i.c.v.): increases the survival
- survival of ischaemic musculocutaneous skin flaps ([2]; 1 mg/kg s.c.): induced the same effect
